What is called EC50 is the midpoint of the concentration-response curve.

This note sets out measurements from patent US20070218456A1, “CELLULAR ASSAYS FOR SIGNALING RECEPTORS” (INVITROGEN CORPORATION, priority 2006, published 2007).

One assay concerns HEK cells. The assay is described as follows: Transient transfection assay, NFAT-bla and CRE-bla HEK, response to LPA. The assay is classed as cell-based, human. To be noted: 10 μM LPA. The text has this: (§1) To begin development of a GPR23 assay in GeneBLAzer® CellSensor™ cell lines (Invitrogen), GPR23 was first tested in a transient transfection assay in the NFAT-bla HEK (Catalog# K1179, Invitrogen), the CRE-bla HEK (Catalog# K1112, Invitrogen), the NFAT-bla CHO-K1 (Catalog# K1078, Invitrogen), the CRE-bla CHO-K1 (Catalog# K1129, Invitrogen), the NFAT-bla Jurkat CellSensor™ cell lines (Catalog# K1077, Invitrogen) and the CRE-bla Jurkat CellSensor™ cell lines (Catalog# K1134, Invitrogen). The hGPR23 expression plasmid was transfected into the cell lines. Lipofectamine 2000 (Invitrogen) was used at a ratio of 0.4 ug of DNA per every uL of Lipofectamine 2000 following manufacturer's directions. After 48 hours the cells were assayed for a response to 10 μM LPA.

The target in assay [1] is T1, GPR23 (Homo sapiens, UniProt Q99677). Kind of assay: LPA responsiveness of T-REx-GPR23 CRE-bla-CHO-K1 clone H6-E2. The format is cell-based. Also noted: expressed in transfected cells; host or cells: CHO-K1 with tet repressor (T-REx); clones E1 and H6, later CRE-bla subclone H6-E2. How it is done:
(§2) The cells were plated at 20,000 cells per well in a 384 well black walled clear bottom tissue culture assay plate in complete media (DMEM+10% FBS). The plates were then placed at 37° C. 5% CO2 for 6 hrs to allow the cells to attach to the assay plate. The complete media was then removed from the plate and replaced with assay media (DMEM+0.1% BSA) containing 100 ng/ml pertussis toxin and 0.5% DMSO, with or without 10 μg/ml doxycycline. The plates were placed at 37° C. 5% CO2 for 16 hrs to allow the induced expression of the GPR23 receptor. The cells were then stimulated for five hours with a four fold dilution series of LPA starting at 1 μM. The cells were then loaded with LiveBLAzer™-FRET B/G substrate (2 μM) containing solution D for 2 hrs.

In a further assay the test system is Jurkat cells. The assay is described as follows: Transient transfection assay, NFAT-bla and CRE-bla Jurkat, response to LPA. The format is cell-based. As to conditions: 10 μM LPA.
Text: as §1

Assay [2] has as its system GPR23. Kind of assay: LPA responsiveness of T-REx-GPR23 CRE-bla-CHO-K1 clone H6-E2. To be noted: un-induced cells. The format is cell-based, human. How it is done: as §2
Assay [3] concerns NFAT and CRE CHO-K1 cell lines. Kind of assay: Transient transfection assay, NFAT-bla and CRE-bla CHO-K1, response to LPA. The assay is classed as cell-based, Chinese hamster. To be noted: 10 μM LPA; absence of transfected GPR23.
Text: as §1

The subject of assay [4] is GPR23. The assay is described as follows: Perkin Elmer LANCE cAMP assay on T-REx-GPR23-CHO-K1 clones. The assay is classed as cell-based, human. As to conditions: un-induced, read-out: LPA EC50 (cAMP). How it is done:
(§3) Two inducible T-RExTM-GPR23-CHO-K1 clones and a parental control (T-RExTM-CHO-K1) were tested using the Perkin Elmer LANCE cAMP assay. The cells were serum starved and induced in growth medium +/-1 μg/ml tetracycline +100 ng/ml pertussis toxin without FBS for 24 hrs prior to the assay. The cells were then harvested using […] assayed for LPA responsiveness using the Perkin Elmer Lance assay according to the manufacture's instructions.
In general terms: TR-FRET usually uses a lanthanide donor and a delayed reading to cut background.

Assay [5] deals with T1, GPR23. The assay is described as follows: LPA response of stably transfected GPR23-CRE-bla HEK pool. The format is cell-based. Also noted: expressed in transfected cells; host or cells: CellSensor CRE-bla HEK (Invitrogen K1112), stably selected pool. How it is done:
Assay construction continued in the NFAT-bla and CRE-bla, HEK and Jurkat CellSensor™ cell lines. These cell lines were taken to the point of stably selected pools at which point they were tested for a response to LPA. Only the stably transfected GPR23-CRE-bla HEK pool gave a response to LPA. The response was <1.5 fold but reproducible.

The target of assay [6] is T1, GPR23. Kind of assay: Perkin Elmer LANCE cAMP assay on T-REx-GPR23-CHO-K1 clones. Also noted: expressed in transfected cells; host or cells: CHO-K1 with tet repressor (T-REx); clones E1 and H6, later CRE-bla subclone H6-E2. To be noted: read-out: LPA EC50 (cAMP). The format is cell-based. How it is done:
as §3

The next assay deals with CRE-bla CHO-K1 cell line. Kind of assay: LPA dose response on CRE-bla CHO-K1 cell line. The format is cell-based, Chinese hamster. As to conditions: CRE-bla CHO cells; 5 hrs stimulation. How it is done: (§4) A stable pool was selected using Zeocin. LPA dose response on the hGPR23-CRE-bla CHO-K1 selected pool and CRE-bla CHO-K1 cell line was performed. The cells were plated at 50,000 cells per well in a 96 well assay plate in OptiMEM+0.5% FBS and placed at 37° C. 5% CO2 overnight. The cells were then stimulated with a four fold dilution series of LPA in DMEM+0.1% BSA for 5 hrs. and loaded with substrate for 2 hrs.

Another assay has as its system hGPR23. The assay is described as follows: LPA dose response on hGPR23-CRE-bla CHO-K1 selected pool. The assay is classed as cell-based, human. As to conditions: 5 hrs stimulation.
Text: An attempt was made to develop a GPR23 assay by stably expressing a human GPR23 (hGPR23) in a CRE-bla CHO-K1 cell line. The CRE-bla CHO-K1 cell line has a non-GPR23 specific endogenous response to LPA (see Example 18), but by adding the human GPR23 to the cells it could have been possible to increase the LPA responsiveness of these cells or create a constitutively active cell line that could be used to screen for inverse agonists of the hGPR23 receptor. The hGPR23 expression plasmid was transfected into the CRE-bla CHO-K1 cell line. Lipofectamine 2000 (Invitrogen) was used at a ratio of 0.4 ug of DNA per every uL of Lipofectamine 2000 following manufacturer's directions.
as §4

The next assay deals with T-REx™-CHO-K1. Kind of assay: Perkin Elmer LANCE cAMP assay on parental T-REx-CHO-K1. The assay is classed as cell-based, Chinese hamster. As to conditions: read-out: LPA EC50 (cAMP). How it is done: as §3

Like-named read-outs stand apart in the source and are kept apart here.

T1 sequence (Q99677 whole entry): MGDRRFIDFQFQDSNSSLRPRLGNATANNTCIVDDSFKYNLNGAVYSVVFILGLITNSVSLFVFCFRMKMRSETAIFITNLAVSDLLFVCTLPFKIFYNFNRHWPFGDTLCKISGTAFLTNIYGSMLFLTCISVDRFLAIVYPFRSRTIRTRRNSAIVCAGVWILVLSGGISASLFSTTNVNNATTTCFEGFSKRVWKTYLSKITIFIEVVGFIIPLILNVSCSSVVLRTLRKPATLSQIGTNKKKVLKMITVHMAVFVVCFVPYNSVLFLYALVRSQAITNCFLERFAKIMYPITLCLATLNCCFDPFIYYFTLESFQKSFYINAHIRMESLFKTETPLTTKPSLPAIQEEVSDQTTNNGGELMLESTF

In the case of “1 or 2-acyl-sn-glycero-3-phosphate [LPA]”, the “response to LPA” value with HEK cells (GPR23 transfected CRE-bla HEK cell line) is recorded as “only a small response”; in the assay with HEK cells (endogenous (untransfected)) it was “no endogenous response”; in the assay on Jurkat cells (GPR23 transfected cells), “no response”; in the assay on Jurkat cells (endogenous (untransfected)) it was “no endogenous response”; in [3] it was “positive response”; on GPR23 [5] it was less than 1.5 fold. For the same substance, the results for the “response of the cells to LPA” value on GPR23 [1] (induced cells) and with GPR23 [2] were 2.3 fold and 9 fold, respectively. Moreover, the EC50 on GPR23 [1] (induced cells (10 μg/ml doxycycline, 16 hrs), LPA five hours) stood at 0.0023 µM; with GPR23 [4] (E1 clone) it was 2 µM; with GPR23 [4] (H6 clone), 1.5 µM; at GPR23 [6] (E1 clone induced (1 μg/ml tetracycline)), 0.0303 µM; at GPR23 [6] (H6 induced (1 μg/ml tetracycline)), 0.0138 µM; in the assay on CRE-bla CHO-K1 cell line, 0.239 µM. Besides, the EC50 with hGPR23 is 0.258 µM; in the assay on T-REx™-CHO-K1 (parent induced (1 μg/ml tetracycline)) it was 0.915 µM; in the assay on T-REx™-CHO-K1 (parent, un-induced), 5 µM.
